# Reference: US20080063628A1, “METHODS TO PROMOTE CELL DIFFERENTIATION” (priority 2006, published 2008)
# Experiments:
# [1] = test system: resting peripheral blood mononuclear cells (PBMCs); test: Trichostatin A treatment of PBMCs, gene expression by RT-PCR (Example 20); type: cell-based, human; settings: 5 μM
# Text: Human peripheral blood mononuclear cells (PBMCs) were isolated from whole blood using Histopaque (Sigma) gradients and standard density centrifugation. PBMCs are a heterogeneous mixture of lymphoid cells including quiescent T-lymphocytes. Cells were washed thoroughly, counted, and resuspended at 1-2×10^6 cells per ml in culture medium containing RPMI-1640 and 10% FCS. Phytohemagglutinin (PHA; Sigma) is a mitogenic lectin that specifically induces T-lymphocyte activation and proliferation. PHA was added to the cell suspension at a final concentration of 10 μg/ml, and PBMCs were cultured for 3 days at 37° C. with 5% CO2. […] At the end of culture, PBMCs were pooled to harvest, washed thoroughly, and resuspended in fresh culture medium with 5 μM trichostatin A diluted in DMSO. A control culture of PHA-treated PBMCs received an equivalent dilution of DMSO alone. Cells were returned to culture for an additional 24 or 48 hours. Alternatively, resting PBMCs were isolated in a similar manner and cultured for 24 or 48 hours total incubation time with either 5 μM trichostatin A or DMSO alone. At the conclusion of culture, cells were harvested and washed with PBS prior to preparation of RNA in RLT lysis buffer with β-mercaptoethanol (Qiagen). RNA was purified using the RNeasy Mini Kit (Qiagen); RNA quantity and quality were determined using a spectrophotometer. CDNA was made using the iScript CDNA synthesis kit (BioRad). Samples of 20 ng CDNA were used in each RT-PCR reaction, performed on the Applied Biosystems 7500. Results were normalized against GAPDH expression levels with data analysis performed using the accompanying software.
# [2] = test system: late passage (P14) pancreatic-derived stromal cells; test: Trichostatin A 24 h time course, gene expression by Real-Time PCR (Example 3); type: cell-based, human; settings: 2.5 μM
# Procedure: Human pancreatic-derived stromal cells were obtained according to the methods described in Example 13. Cells were seeded into a 24-well tissue culture plate at a density of 5000/cm^2 and cultured in DMEM containing 10% fetal bovine serum under standard cell culture conditions until confluent. After the cells reached confluency, 2.5 μM trichostatin A, diluted in DMSO and medium was added to the wells. Parallel cultures were treated with an equivalent concentration of DMSO as a vehicle control. RNA samples were obtained from treated cultures at 30 minutes, 1.5 hours, 3 hours, 6 hours, 12 hours and 24 hours following the addition of trichostatin A or DMSO. Culture medium was removed, the cells were washed with PBS, and RLT lysis buffer with β-mercaptoethanol (Qiagen) was added. RNA was purified using the RNeasy Mini Kit (Qiagen). RNA quantity and quality were determined using a spectrophotometer, and CDNA was made using the iScript cDNA synthesis kit (BioRad).
# The expression levels of Sox17, HNF-3 beta, Pdx-1, insulin, and glucagon were determined by Real-Time PCR. Samples of 20 ng cDNA were used in each reaction, which was performed on the Applied Biosystems 7500 according to the methods described in Example 15. Data were analyzed using the accompanying software. Human pancreas cDNA was included as a positive control, and results were normalized against GAPDH expression levels.
# Real-time PCR amplifcation and quantitative analysis. Unless otherwise stated, all reagents were purchased from Applied Biosystems. Real-time PCR reactions were performed using the ABI PRISM™ 7500 Sequence Detection System. TAQMAN™ FAST UNIVERSAL PCR MASTER MIX™ (ABI, CA) was used with 20 ng of reverse transcribed RNA in a total reaction volume of 20 μl. Each cDNA sample was run in duplicate to allow correction of pipetting errors. Primers and FAM-labeled TAQMAN™ probes were used at concentrations of 200 nM. The level of expression for each target gene was normalized using the pre-developed Applied Biosystem's human glyceraldehyde-3-phosphate dehydrogenase (GAPDH) endogenous control kit. Primers and probes were designed using either ABI PRISM PRIMER EXPRESS™ software or a pre-developed ABI gene analysis kit. For each gene, either one of the primers or the probe were designed to be exon-boundary spanning. This eliminated the possibility of the primers/probe binding to any genomic DNA present. The primer and probe sets are listed as follows: Pdx-1 (Hs00426216), Insulin (Hs00355773), glucagon (Hs00174967), and FoxA2 (HNF 3-beta) (Hs00232764). The remaining primers were designed using the PRIMERS program (ABI, CA). After an initial 95° C. incubation for 20 sec, samples were cycled 40 times in two stages: a denaturation step at 95° C. for 3 sec, followed by an annealing/extension step at 60° C. for 30 sec.
# For each primer/probe set, a cycle time value was determined as the cycle number at which the fluorescence intensity of the PCR reaction reached a specific value in the middle of the exponential region of amplification. An increase in expression of a gene corresponded to a decrease in the number of cycles required for the fluorescence intensity to reach this value.
smiles,measurement,setting,value
CC(/C=C/C(=O)NO)=C\[C@@H](C)C(=O)c1ccc(N(C)C)cc1 [trichostatin A],HNF-3 beta expression,[1]; 24 or 48 hours,negative
same,Sox17 expression,[1]; 24 or 48 hours,negative
same,glucagon expression,[1]; 24 or 48 hours,negative
same,insulin expression,[1]; 24 or 48 hours,negative
same,somatostatin expression,[1]; 24 or 48 hours,negative
same,GAPDH gene expression,[1]; 24 hrs,+++ (detectable at less than 35 cycles by RT-PCR with SE less than 0.9)
same,GATA4 gene expression,[1]; 24 hrs,+ (detectable at greater than 35–40 cycles by RT-PCR)
same,Gata1 gene expression,[1]; 24 hrs,nd (not detectable at >40 cycles by RT-PCR)
same,Pdx-1 gene expression,[1]; 24 hrs,nd (not detectable at >40 cycles by RT-PCR)
same,GAPDH gene expression,[1]; 48 hours,+++ (detectable at less than 35 cycles by RT-PCR with SE less than 0.9)
same,GATA4 gene expression,[1]; 48 hours,+ (detectable at greater than 35–40 cycles by RT-PCR)
same,Gata1 gene expression,[1]; 48 hours,nd (not detectable at >40 cycles by RT-PCR)
same,Pdx-1 gene expression,[1]; 48 hours,nd (not detectable at >40 cycles by RT-PCR)
same,HNF-3 beta gene expression,[2]; 0.5 h,nd (not detectable at >40 cycles by RT-PCR)
same,Insulin gene expression,[2]; 0.5 h,nd (not detectable at >40 cycles by RT-PCR)
same,PDX-1 gene expression,[2]; 0.5 h,nd (not detectable at >40 cycles by RT-PCR)
same,Sox17 gene expression,[2]; 0.5 h,+ (detectable between 35 and 40 cycles by RT-PCR)
same,glucagon gene expression,[2]; 0.5 h,nd (not detectable at >40 cycles by RT-PCR)
same,HNF-3 beta gene expression,[2]; 1.5 h,nd (not detectable at >40 cycles by RT-PCR)
same,Insulin gene expression,[2]; 1.5 h,nd (not detectable at >40 cycles by RT-PCR)
same,PDX-1 gene expression,[2]; 1.5 h,nd (not detectable at >40 cycles by RT-PCR)
same,Sox17 gene expression,[2]; 1.5 h,nd (not detectable at >40 cycles by RT-PCR)
same,glucagon gene expression,[2]; 1.5 h,nd (not detectable at >40 cycles by RT-PCR)
same,HNF-3 beta gene expression,[2]; 3 h,nd (not detectable at >40 cycles by RT-PCR)
same,Insulin gene expression,[2]; 3 h,nd (not detectable at >40 cycles by RT-PCR)
same,PDX-1 gene expression,[2]; 3 h,nd (not detectable at >40 cycles by RT-PCR)
same,Sox17 gene expression,[2]; 3 h,+ (detectable between 35 and 40 cycles by RT-PCR)
same,glucagon gene expression,[2]; 3 h,nd (not detectable at >40 cycles by RT-PCR)
same,Sox-17 RT-PCR detection cycle,[2]; 3 hours,> 35 cycles
same,HNF-3 beta gene expression,[2]; 6 h,+ (detectable between 35 and 40 cycles by RT-PCR)
same,Insulin gene expression,[2]; 6 h,nd (not detectable at >40 cycles by RT-PCR)
same,PDX-1 gene expression,[2]; 6 h,nd (not detectable at >40 cycles by RT-PCR)
same,Sox17 gene expression,[2]; 6 h,+ (detectable between 35 and 40 cycles by RT-PCR)
same,glucagon gene expression,[2]; 6 h,nd (not detectable at >40 cycles by RT-PCR)
same,HNF-3 beta RT-PCR detection cycle,[2]; 6 hours,> 35 cycles
same,HNF-3 beta gene expression,[2]; 12 h,+ (detectable between 35 and 40 cycles by RT-PCR)
same,Insulin gene expression,[2]; 12 h,nd (not detectable at >40 cycles by RT-PCR)
same,PDX-1 gene expression,[2]; 12 h,+ (detectable between 35 and 40 cycles by RT-PCR)
same,Sox17 gene expression,[2]; 12 h,+ (detectable between 35 and 40 cycles by RT-PCR)
same,glucagon gene expression,[2]; 12 h,nd (not detectable at >40 cycles by RT-PCR)
same,Pdx-1 RT-PCR detection cycle,[2]; 12 hours,> 35 cycles
same,HNF-3 beta gene expression,[2]; 24 h,+++ (detectable at less than 35 cycles by RT-PCR with std error less than 0.9)
same,Insulin gene expression,[2]; 24 h,nd (not detectable at >40 cycles by RT-PCR)
same,PDX-1 gene expression,[2]; 24 h,+++ (detectable at less than 35 cycles by RT-PCR with std error less than 0.9)
same,Sox17 gene expression,[2]; 24 h,+++ (detectable at less than 35 cycles by RT-PCR with std error less than 0.9)
same,glucagon gene expression,[2]; 24 h,+ (detectable between 35 and 40 cycles by RT-PCR)
same,HNF-3 beta RT-PCR detection cycle,[2]; 24 hours,< 35 cycles
same,HNF-3 beta gene expression relative to human pancreas,[2]; 24 hours,~0.075 % of human pancreas
same,Pdx-1 RT-PCR detection cycle,[2]; 24 hours,< 35 cycles
same,Pdx-1 gene expression relative to human pancreas,[2]; 24 hours,~0.2 % of human pancreas levels
same,Sox-17 RT-PCR detection cycle,[2]; 24 hours,< 35 cycles
same,Sox-17 gene expression relative to human pancreas,[2]; 24 hours,~3 % of human pancreas levels
same,glucagon RT-PCR detection cycle,[2]; 24 hours,35-40 cycles
